For the test, the system named is LH86 cells or Huh7.5 cells. Description: Tumor growth of implanted HCV susceptible cell lines in immune deficient mice. It is filed as in vivo. As to conditions: injection of human EGF to NOD-SCID mice bearing subcutaneous tumor cells. On the procedure: To establish a mouse model that is capable of supporting the whole viral life cycle, the present inventors implanted HCV susceptible cell lines (LH86 cells of the present invention or Huh7.5 cells) to immune deficient mice (NOD-SCID). When 1×10^6 cells were injected subcutaneously into the mice, visible tumor (0.5 cm) formed in one week, and the tumor continued to grow to 5 cm in size in 6 weeks. For LH86 cells, 5×10^6 tumor cells must be injected to achieve a similar tumor growth pattern.

“human EGF: human EGF injected to mice (NSDSECPLSHDGYCLHDGVCMYIEALDKYACNCVVGYIGERCQYRDLKWWELR; UniProt P01133 971-1023, looked up)”: the tumor growth rate entry is given as “significantly accelerate”.

The values above are taken from patent US8017391B2, “Human liver cancer cell line” (Univesity of Florida Research Foundation, Inc., priority 2006, dated 2011).
